In patent US11382907B2, “Methods and compositions for treating aging-associated impairments using CCR3-inhibitors” (Alkahest, Inc., priority 2017, dated 2022):
Where two headings read alike, the source gives them in different places.

Columns and labels:
[1] = Compound cerebrospinal fluid levels in mice (mass spectroscopy); assay type: in vivo, C57BL/6 mice; conditions: for concentration at 4 weeks: C57BL/6, mouse, cerebrospinal fluid, subcutaneous, 16.5-month-old old group, read-out: level of Compound 1 in CSF
Description: Compound levels were measured by MS/MS by Quintara (Hayward, Calif.).
Cerebrospinal fluid (CSF) from both the 2-month-old “young” and 16.5-month-old “old” groups was collected and levels of Compound 1 were determined by mass spectroscopy. FIG. 6 depicts the levels of the compound of the invention that were detected in mouse CSF for both the young and old groups (both below 10 nM).

[2] = Tissue distribution of [14C]-radiolabeled Compound 1 (LSC, whole body autoradiography); assay type: in vivo, C57BL/6JOlaHsd mice; conditions: 10 mg/kg oral, [14C]-label; 1, 24, 168 hours
Description: The distribution of Compound 1 in mouse tissues was determined after oral administration of which was [^14C]-radiolabeled (“Labeled Compound”) to male pigmented C57BL/6JOlaHsd mice (Harlan Labs, BV). The Labeled Compound was administered at 10 mg/kg of body weight, corresponding to 17 μmol/kg. One animal was sacrificed after 1, 24, and 168 hours post-administration. Blood, plasma, and eye radioactivity concentrations were measured using liquid scintillation counting (LSC). Tissue and organ concentrations were determined by whole body autoradiography technique (QWBA). […]
The following sections were taken at different levels through the embedded animal, and whole body sections selected at 5-7 levels in order to allow for quantitative evaluation of radioactivity: adrenal glands; blood; bone marrow; brain; eye (lens); epididymis; fat (white and brown); Harderian gland; heart; kidneys; liver; lung; muscle; pituitary; pancreas; prostate, spinal cord; spleen salivary gland; skin; testis; thyroid; thymus; uveal tract. […]
FIG. 7 depicts a chart of values reporting the area under the curve (AUC) for all three time points, and quantifies each tissue's exposure to the Labeled POI after administration of the compound.

[3] = test system: aged C57Bl/6 mice; assay: Y-maze test in aged mice; assay type: in vivo
Description: A large Y-maze test assesses short-term memory of the familiarity of a specific context. Mice are brought to the experimental room for at least 30 min of acclimation to the experimental room conditions (dim lighting) prior to testing. For the initial training trial, the mouse is placed at the end of one arm of a large Y-maze designated “start arm” (arm length: 15 inches). The third arm of the maze is blocked off, allowing the mouse to explore two of the three arms freely (“start arm” and “familiar arm”) for 5 min. Each arm contains spatial cues. One hour later, the mouse is placed back into the maze in the “start arm” and allowed to explore all three arms with the third arm unblocked (“novel arm”). Movements in and out of each arm are tracked using automated tracking software (CleverSys). Testing is performed under dim lighting, and the apparatus is cleaned with 70% ethanol between trials.
(§1) Two-month-old or 18-month-old C57Bl/6 mice were dosed with either IgG antibody control by IP injection or Compound 1 subcutaneously by Alzet osmotic pump for either 2 or 4 weeks. During the last week of treatment, mice were subjected to behavior testing prior to perfusion on the last day of treatment. All mice received 5 consecutive days of BrdU injection at 150 mg/kg IP immediately prior to treatment start.
as §1, with “Three-month-old” for “Two-month-old”, “16.5-month-old” for “18-month-old”, “vehicle” for “IgG antibody”, “control” for “control by IP injection”, “for” for “for either 2 or”
23-month-old C57Bl/6 mice were dosed with either vehicle control or Compound 1 by oral gavage twice daily for 19 days. After 11 days of treatment, mice were subjected to Y maze testing.
(§2) 23-month-old C57Bl/6 mice were dosed with either vehicle control or Compound 1 subcutaneously twice daily for 21 days. Three weeks later, mice were subjected to behavior testing, and sacrificed the day following the last behavior test.

[4] = test system: aged C57Bl/6 mice; assay: Barnes maze test in aged mice; assay type: in vivo
Excerpt: A modified Barnes maze was used to assess spatial working/episodic like learning and memory. The Barnes maze apparatus consists of a 122 cm diameter circular platform with 40 escape holes, each with a diameter of 5 cm placed along three rings of varying distances from the center of the platform. An escape box is attached to one of the holes and all holes are left uncovered. Bright lights and a fan are trained on the maze to provide adverse stimuli to encourage escape. Visual cues are placed on all four sides of the maze. Mice are given a series of 4 or 5 trials with inter-trial intervals of approximately 10 min, and the maximum duration of each trial is 90 or 120 sec. For each trial, mice are placed in the center of the maze. After 10 seconds, mice are allowed to explore, and the trial is ended if the mouse has found and entered an escape box before the end of the trial. Mice that cannot find the escape box are led to it and allowed to enter and given 30 sec to remain before being returned to its home cage. Training is done for 4 days. Data that is recorded and analyzed include velocity, escape latency, and distance moved.
Mice are divided into groups of 4-5 mice each, with balanced treatment groups. For example, Group 1 mice are run for 4 trials, then Group 2 mice are run for 4 trials, and so on until all groups finish testing. 70% ethanol is used to clean the arenas between trials.
as §1, with “Three-month-old” for “Two-month-old”, “16.5-month-old” for “18-month-old”, “vehicle” for “IgG antibody”, “control” for “control by IP injection”, “for” for “for either 2 or”
as §2

[5] = test system: aged C57Bl/6 mice; assay: Open Field test in aged mice; assay type: in vivo; conditions: 23-month-old mice; 30 mg/kg SQ BID 21 days, tested three weeks later
Description: Open Field is used to evaluate general locomotor activity and exploratory behavior in a novel environment. Mice are brought to the experimental room for at least 30 min for acclimation to the experimental room conditions (dim lighting) prior to testing. The testing arena consists of a 50 cm×50 cm square arena. Mice are placed in the center of an arena and tracked for 15 minutes. Time spent in the peripheral and centers zones is analyzed, along with rearing behavior. 70% ethanol is used to clean all surfaces between trials.
as §2

[6] = 23-month-old mice, 30 mg/kg SQ BID 21 days, tested three weeks later
[7] = 23-month-old mice, 30 mg/kg oral gavage BID, tested after 11 days
[8] = 16.5-month-old mice, 4-week dosing by pump

concentration at 4 weeks ([1]; 50 mg/mL solution infused at 0.5 μL/hour by Alzet mini-pump, mass spectroscopy): < 10 nM
concentration at 4 weeks ([1]; mass spectroscopy): < 10 nM
level of Compound 1 in CSF ([1]; young group, mass spectroscopy): below 10 nM
Structure (SMILES): Cc1cc(C(=O)N(C)C)cc(NC(=O)[C@H]2CCC(=O)N2C2CCN(Cc3ccc(Cl)c(C)c3)CC2)n1 [Compound 1]
difference in BBB penetration between young and old mice ([1]; mouse, in vivo): no difference in BBB penetration between young and old mice
crossing of the blood-brain barrier (CSF levels versus Ki) ([1]; young and old mice): do not cross the blood-brain barrier (BBB) in significant concentrations
crossing of the blood-brain barrier (tissue AUC of radioactivity) [2]: does not cross the blood-brain barrier (BBB) at significant levels
cognitive performance in the cued Y-maze ([3]; 16.5-month-old mice, four-week subcutaneous dosing by pump): improved cognitive performance
performance in the cued Y-maze ([3]; 18-month-old mice, low or high infusion for 2 or 4 weeks): improvement in the cued Y-maze
Y-maze duration of time spent in the novel arm [3, 6]: exhibited intact memory for the novel arm
Y-maze number of visits to the novel arm [3, 6]: exhibited intact memory for the novel arm
memory in the Y-maze [3, 6]: significantly improved memory
velocity during the Y-maze test [3, 6]: significantly increased the velocity
Y-maze number of visits to the novel arm [3, 7]: exhibited intact memory for the novel arm
distance travelled during the Y-maze test [3, 7]: significantly increased the distance travelled
memory in the Y-maze [3, 7]: significantly improved memory
Barnes maze average of the latency for day 4 trials [4, 8]: Trends for improved memory
Barnes maze difference between the latencies of trials 13 and 16 [4, 8]: Trends for improved memory
performance in the Barnes maze [4, 8]: trended towards improved performance
Barnes Maze spatial memory performance [4, 6]: performed significantly better
velocity during the Barnes Maze test [4, 6]: exhibited increased velocity
Open Field distance travelled [5]: strong trends towards improvement
Open Field velocity [5]: strong trends towards improvement
